Here are results for 34 molecules from US12365655B2, “Compounds” (CTXT PTY LTD, priority 2018, dated 2025).

Assay [1] has as its target HBO-KAT7 (Homo sapiens, UniProt O95251). The experiment in a line: Acetyltransferase biochemical assay (AlphaScreen), KAT7.
Assay [2] has as its target MOZ-KAT6A (Homo sapiens, UniProt Q92794, A567V). The experiment in a line: Acetyltransferase biochemical assay (AlphaScreen), KAT6A.
Assay [3] concerns the target TIP60-KAT5 (Homo sapiens, UniProt Q92993). The assay is described as follows: Acetyltransferase biochemical assay (AlphaScreen), KAT5. On the technique in general: Alpha assays give light when donor and acceptor beads are brought close together.

Sequence of MOZ-KAT6A (Q92794 with tags, fused parts or gaps A567V): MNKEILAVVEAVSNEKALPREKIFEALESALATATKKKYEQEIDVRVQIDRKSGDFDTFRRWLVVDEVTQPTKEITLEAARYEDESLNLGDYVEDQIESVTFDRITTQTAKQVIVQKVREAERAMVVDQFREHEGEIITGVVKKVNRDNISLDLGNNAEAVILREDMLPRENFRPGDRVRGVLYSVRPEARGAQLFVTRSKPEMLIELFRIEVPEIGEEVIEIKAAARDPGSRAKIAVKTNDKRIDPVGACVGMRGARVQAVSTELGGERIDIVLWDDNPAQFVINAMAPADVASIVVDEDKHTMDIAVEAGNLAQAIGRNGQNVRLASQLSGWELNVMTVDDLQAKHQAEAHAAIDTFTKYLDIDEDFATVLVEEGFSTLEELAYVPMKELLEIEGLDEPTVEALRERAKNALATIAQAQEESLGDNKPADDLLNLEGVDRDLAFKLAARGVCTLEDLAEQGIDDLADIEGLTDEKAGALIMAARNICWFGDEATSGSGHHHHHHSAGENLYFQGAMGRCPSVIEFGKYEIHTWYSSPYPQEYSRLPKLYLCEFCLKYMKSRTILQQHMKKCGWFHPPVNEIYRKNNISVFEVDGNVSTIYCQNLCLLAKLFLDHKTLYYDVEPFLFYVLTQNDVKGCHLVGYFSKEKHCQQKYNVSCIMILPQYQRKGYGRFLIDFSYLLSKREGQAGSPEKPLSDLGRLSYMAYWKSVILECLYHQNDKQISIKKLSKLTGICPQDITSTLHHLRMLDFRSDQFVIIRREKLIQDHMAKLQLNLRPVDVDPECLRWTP
Sequence of TIP60-KAT5 (Q92993 with tags, fused parts or gaps isoform Q92993-2): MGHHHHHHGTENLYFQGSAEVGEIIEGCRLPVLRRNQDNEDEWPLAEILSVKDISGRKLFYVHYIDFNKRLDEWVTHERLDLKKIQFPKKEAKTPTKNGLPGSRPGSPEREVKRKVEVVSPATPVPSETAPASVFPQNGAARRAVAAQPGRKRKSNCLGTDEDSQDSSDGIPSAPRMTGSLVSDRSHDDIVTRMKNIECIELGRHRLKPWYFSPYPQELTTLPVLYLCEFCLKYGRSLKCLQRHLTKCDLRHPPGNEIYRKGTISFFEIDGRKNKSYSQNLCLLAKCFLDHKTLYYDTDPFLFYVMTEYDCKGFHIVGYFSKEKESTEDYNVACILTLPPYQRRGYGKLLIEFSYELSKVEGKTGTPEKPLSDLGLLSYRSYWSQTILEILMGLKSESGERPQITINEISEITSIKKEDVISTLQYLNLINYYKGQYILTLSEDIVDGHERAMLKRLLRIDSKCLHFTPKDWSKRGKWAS
Sequence of HBO-KAT7 (O95251 with tags, fused parts or gaps): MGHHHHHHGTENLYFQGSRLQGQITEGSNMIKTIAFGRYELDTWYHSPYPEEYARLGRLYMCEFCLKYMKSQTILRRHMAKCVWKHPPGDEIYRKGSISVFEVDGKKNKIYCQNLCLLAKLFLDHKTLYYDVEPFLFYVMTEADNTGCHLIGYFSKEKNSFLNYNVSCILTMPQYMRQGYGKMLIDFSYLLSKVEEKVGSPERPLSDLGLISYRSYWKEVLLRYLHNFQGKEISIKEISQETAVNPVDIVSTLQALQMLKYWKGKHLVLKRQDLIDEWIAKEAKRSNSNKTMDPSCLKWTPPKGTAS

For `CCc1ccc(S(=O)(=O)Nc2noc3ccccc23)cc1` [Example 53, N-(benzo[d]isoxazol-3-yl)-4-ethylbenzene sulfonamide], the results for the IC50 in assay [1], in assay [2] and in assay [3] were over 125 µM, 90.7 µM and over 125 µM, respectively.
As to `COc1cccc(OC)c1S(=O)(=O)Nc1noc2c(Br)cc(C)cc12` [Example 239], the IC50 in assay [1] is 3 µM; in assay [2] it was 2.13 µM; in assay [3], 17.4 µM.
Taken in the same sequence, the figures for `CC(C)c1ccc(S(=O)(=O)Nc2noc3cccc(Cl)c23)cc1` [Example 22, N-(4-chlorobenzo [d]isoxazol-3-yl)-4-isopropylbenzene sulfonamide] were 6.3 µM, 5.21 µM and 38.9 µM.
For `O=S(=O)(Nc1noc2cccc(Cl)c12)c1cccc2nonc12` [Example 16, N-(4-chlorobenzo [d]isoxazol-3-yl)benzo[c][1,2,5]oxadiazole-4-sulfonamide], the values for the IC50 in assay [1], in assay [2] and in assay [3] were 9.63 µM, 15.1 µM and 30.2 µM, respectively.
Taken in the same sequence, the figures for `COc1cc(C)c(C)cc1S(=O)(=O)Nc1noc2cccc(Cl)c12` [Example 33, N-(4-chlorobenzo [d]isoxazol-3-yl)-2-methoxy-4,5-dimethylbenzenesulfonamide] were 11.4 µM, 6.85 µM and 90.5 µM.
Taken in the same sequence, the figures for `COc1ccc(S(=O)(=O)Nc2noc3cccc(OC)c23)c(OC)c1` [Example 76, 2,4-dimethoxy-N-(4-methoxybenzo [d]isoxazol-3-yl)benzene sulfonamide] were 0.937 µM, 0.688 µM and 2.58 µM.
As for `CCc1ccc(OC)c(S(=O)(=O)Nc2noc3c(C)cccc23)c1` [Example 187, 5-Ethyl-2-methoxy-N-(7-methylbenzo[d]isoxazol-3-yl)benzenesulfonamide], the values for the IC50 in assay [1], in assay [2] and in assay [3] were 22 µM, 5.66 µM and 65.3 µM, respectively.
For the molecule `COC(=O)c1ccccc1S(=O)(=O)Nc1noc2cccc(Cl)c12` [Example 12, methyl 2-(N-(4-chlorobenzo[d]isoxazol-3-yl)sulfamoyl)benzoate], the 50% inhibitory concentration (IC50) was 49.9 µM in assay [1], over 125 µM in assay [2] and over 125 µM in assay [3].
Take `COc1c(S(=O)(=O)Nc2noc3cccc(Cl)c23)ccc(Cl)c1Cl` [Example 3, 3,4-dichloro-N-(4-chlorobenzo[d]isoxazol-3-yl)-2-methoxy benzenesulfonamide]: the values for the half-maximal inhibitory concentration (IC50) in assay [1], in assay [2] and in assay [3] were 23.2 µM, 23.8 µM and 65.1 µM, respectively.
Taken in the same sequence, the figures for `O=S(=O)(Nc1noc2cccc(Cl)c12)c1ccc(OCc2ccccc2)cc1` [Example 9, 4-(benzyloxy)-N-(4-chlorobenzo[d]isoxazol-3-yl)benzenesulfonamide] were 8.42 µM, 26.8 µM and 41 µM.
Taken in the same sequence, the figures for `CCc1ccc(OC)c(S(=O)(=O)Nc2noc3ccc(CNC(C)=O)cc23)c1` [Example 228, N-((3-((5-Ethyl-2-methoxyphenyl)sulfonamido)benzo[d]isoxazol-5-yl)methyl)acetamide] were over 125 µM, 75.2 µM and 124 µM.
Turning to `COc1cc(C)c(Cl)cc1S(=O)(=O)Nc1noc2ccccc12` [Example 51, N-(benzo[d]isoxazol-3-yl)-5-chloro-2-methoxy-4-methylbenzene sulfonamide], the IC50 in assay [1] worked out at 28.3 µM; in assay [2], 15 µM; in assay [3], 87.7 µM.
For `CCc1ccc(OC)c(S(=O)(=O)Nc2noc3c(C4CCCCC4)cccc23)c1` [Example 190], in that order: 18.5 µM, 9.73 µM and 19.9 µM.
Taken in the same sequence, the figures for `CCc1ccc(OC)c(S(=O)(=O)Nc2noc3c(-c4ncccn4)cccc23)c1` [Example 136, 5-Ethyl-2-methoxy-N-(7-(pyrimidin-2-yl)benzo[d]isoxazol-3-yl)benzenesulfonamide] were 28.3 µM, 34.3 µM and over 125 µM.
For `O=S(=O)(Nc1noc2cccc(Cl)c12)c1ccc(-n2cccn2)cc1` [Example 28, N-(4-chlorobenzo [d]isoxazol-3-yl)-4-(1H-pyrazol-1-yl)benzenesulfonamide], in that order: 54.8 µM, 117 µM and over 125 µM.
Take `CCc1ccc(OC)c(S(=O)(=O)Nc2noc3c(CC)cccc23)c1` [Example 188]: the IC50 is 40.1 µM in assay [1], 9.23 µM in assay [2] and 69.9 µM in assay [3].
For `Cc1ccc(Br)cc1S(=O)(=O)Nc1noc2cccc(Cl)c12` [Example 114, 5-Bromo-N-(4-chlorobenzo[d]isoxazol-3-yl)-2-methylbenzenesulfonamide], in that order: 41.6 µM, 29.3 µM and 59.4 µM.
Take `Cc1cnc2c(S(=O)(=O)Nc3noc4cccc(Cl)c34)cccc2c1` [Example 118, N-(4-Chlorobenzo[d]isoxazol-3-yl)-3-methylquinoline-8-sulfonamide]: the results for the IC50 in assay [1], in assay [2] and in assay [3] were 0.852 µM, 10 µM and 37.1 µM, respectively.
As to `CCc1ccc(OC)c(S(=O)(=O)Nc2noc3ccc(Cn4cccn4)cc23)c1` [Example 225], the half-inhibitory concentration (IC50) in assay [1] is 31.1 µM; in assay [2], 3.62 µM; in assay [3] it was over 125 µM.
Regarding `CCc1ccc(OC)c(S(=O)(=O)Nc2noc3cc(-c4ncccn4)ccc23)c1` [Example 126, 5-Ethyl-2-methoxy-N-(6-(pyrimidin-2-yl)benzo[d]isoxazol-3-yl)benzenesulfonamide], the concentration for half-maximal inhibition (IC50) came out at 28.9 µM in assay [1], 10.5 µM in assay [2] and 51.3 µM in assay [3].
For `COc1cccc(OC)c1S(=O)(=O)Nc1noc2c(-c3ccccc3)ccc(OC)c12` [Example 142, 2,6-Dimethoxy-N-(4-methoxy-7-phenylbenzo[d]isoxazol-3-yl)benzenesulfonamide], in that order: 1.16 µM, 3.3 µM and 32.2 µM.
For `O=S(=O)(Nc1noc2cccc(Cl)c12)c1cc(OCC(F)(F)F)ccc1OCC(F)(F)F` [Example 10, N-(4-chlorobenzo [d]isoxazol-3-yl)-2,5-bis(2,2,2-trifluoroethoxy) benzenesulfonamide], in that order: 54.1 µM, 17.5 µM and 93.7 µM.
Taken in the same sequence, the figures for `COc1cc2c(c(OC)c1S(=O)(=O)Nc1noc3cccc(OC)c13)CCC2` [Example 106, 4,6-Dimethoxy-N-(4-methoxybenzo[d]isoxazol-3-yl)-2,3-dihydro-1H-indene-5-sulfonamide] were 3.98 µM, 0.782 µM and 14.3 µM.
As for `O=S(=O)(Nc1noc2cccc(Cl)c12)c1ccc2nc(O)oc2c1` [Example 8, N-(4-chlorobenzo [d]isoxazol-3-yl)-2-hydroxybenzo[d]oxazole-6-sulfonamide], the IC50 in assay [1] was over 125 µM; in assay [2] it was 113 µM; in assay [3], over 125 µM.
Turning to `CCc1ccc(OC)c(S(=O)(=O)Nc2noc3cc(C4CC4)ccc23)c1` [Example 195], the IC50 amounted to 4.96 µM in assay [1], 1.32 µM in assay [2] and 16.7 µM in assay [3].
`O=S(=O)(Nc1noc2ccccc12)c1ccc(Br)cn1` [Example 68, N-(benzo[d]isoxazol- -3-yl)-5-bromopyridine-2-sulfonamide]: the IC50 in assay [1] was over 125 µM; in assay [2], 85.1 µM; in assay [3], over 125 µM.
Regarding `COc1cccc(O)c1S(=O)(=O)Nc1noc2cccc(OC)c12` [Example 213, 2-Hydroxy-6-methoxy-N-(4-methoxybenzo[d]isoxazol-3-yl)benzenesulfonamide], the IC50 in assay [1] is 20.5 µM; in assay [2], 8.28 µM; in assay [3], over 125 µM.
Take `O=S(=O)(Nc1noc2cccc(Cl)c12)c1cccc2scnc12` [Example 15, N-(4-chlorobenzo [d]isoxazol-3-yl)benzo [d]thiazole-4-sulfonamide]: the concentration for half-maximal inhibition (IC50) in assay [1] came to 1.46 µM; in assay [2], 1.91 µM; in assay [3], 7.29 µM.
Turning to `CCc1ccc(OC)c(S(=O)(=O)Nc2noc3cccc(C)c23)c1` [Example 198, 5-Ethyl-2-methoxy-N-(4-methylbenzo[d]isoxazol-3-yl)benzenesulfonamide], the results for the concentration for half-maximal inhibition (IC50) in assay [1], in assay [2] and in assay [3] were 6.95 µM, 2.82 µM and 73.7 µM, respectively.
Taken in the same sequence, the figures for `COc1cccc(OCCO)c1S(=O)(=O)Nc1noc2cccc(OC)c12` [Example 220, 2-(2-Hydroxyethoxy)-6-methoxy-N-(4-methoxybenzo[d]isoxazol-3-yl)benzenesulfonamide] were 11 µM, 3.5 µM and over 125 µM.
For `CCc1ccc(OC)c(S(=O)(=O)Nc2noc3ccc(C(=O)N(C)C)cc23)c1` [Example 231, 3-((5-Ethyl-2-methoxyphenyl)sulfonamido)-N,N-dimethylbenzo[d]isoxazole-5-carboxamide], in that order: over 125 µM, 59 µM and over 125 µM.
For `CCc1ccc(OC)c(S(=O)(=O)Nc2noc3ccc(C4CC4)c(OC)c23)c1` [Example 208], in that order: 4.65 µM, 1.63 µM and 28.5 µM.
Regarding `CCc1ccc(S(=O)(=O)Nc2noc3ccccc23)c(OC)c1` [Example 182], the half-maximal inhibitory concentration (IC50) in assay [1] came to 15.6 µM; in assay [2] it was 15.2 µM; in assay [3] it was 65.6 µM.
As for `O=S(=O)(Nc1noc2ccccc12)c1ccc(Cl)c(Cl)c1` [Example 61, N-(benzo[d]isoxazol-3-yl)-3,4-dichlorobenzene-sulfonamide], the IC50 in assay [1] was over 125 µM; in assay [2], 51.9 µM; in assay [3], 85.4 µM.

By IC50 is commonly meant the point on the concentration scale where inhibition reaches its midpoint.
